One data set deals with GAS NZ131. Nature of the data set: MBC determination. In kind it is cell-based, group A Streptococcus. To be noted: Streptococcus, 3-log reduction of viable bacteria after 24 hour incubation at 37° C. in half strength MHB in PBS. The method, then: (§1) To determine MBC, bacteria were cultured in TSB (Staphylococcus), THB (Streptococcus) or Nutrient broth (P. aeruginosa and E. coli) by reaching exponential phase (OD600=0.5-0.8). […] After incubation, the number of viable bacteria was measured by counting CFU after spreading 10-fold serial dilutions of bacteria on suitable agar plates. MBC was determined as a 3-log reduction (99.9%) of viable bacteria after 24 hour incubation.
(§2) Antimicrobial activity of 6-HAP in vitro. To examine the specificity of 6-HAP for various bacteria, minimal bactericidal concentrations (MBCs) were determined according to dose-dependent killing curves at 24 hrs of incubation in vitro (Table 1). 6-HAP killed or suppressed growth of several major skin pathogens including GAS (NZ131), group B Streptococcus (GBS) (DK23), methicillin-sensitive S. aureus (ATCC35556), methicillin-resistant S. aureus (MRSA) strains (USA300 and Sanger252), Pseudomonas aeruginosa (P. aeruginosa) (ATCC14213) in vitro. […] S. epidermidis (ATCC12228) was also resistant to 6-HAP.

The test system of another data set is MRSA Sanger252. Nature of the data set: MBC determination. In kind it is cell-based, methicillin-resistant S. aureus. The settings on record: Staphylococcus aureus, 3-log reduction, 24 hour, 37° C., half strength MHB in PBS. The method, then:
as §1, §2

For a further data set, the system named is MRSA USA300. Nature of the data set: MBC determination. To be noted: Staphylococcus aureus, 3-log reduction, 24 hour, 37° C., half strength MHB in PBS. In kind it is cell-based, methicillin-resistant S. aureus. The method, then:
as §1, §2

The subject of the next data set is P. acnes ATCC6919. Nature of the data set: MBC determination. In kind it is cell-based, Propionibacterium acnes. The settings on record: Cutibacterium acnes, 3-log reduction, 24 hour, 37° C., half strength MHB in PBS.
A further data set has as its system GAS. Nature of the data set: Antimicrobial activity against GAS in the presence of adenine. In kind it is cell-based, group A Streptococcus. The settings on record: 20 hrs, CFU. The method, then: (a) Time course killing of GAS in THB containing 6-HAP (25 μg/mL), mitomycin C (5 μg/mL), or LL-37 (10 μM). At each indicated time point, live GAS in the media was measured by counting CFU on an agar plate. The data represent mean±SE of four individual experiments. (b) Membrane permeability of GAS incubated in THB containing 6-HAP (25 μg/mL), mitomycin C (5 μg/mL) and LL-37 (10 μM) for 1 hr. The bacteria with compromised plasma membranes (Red) can be distinguished from those with intact membranes (Green). (c) BrdU incorporation into nascent DNA of GAS after incubation with 6-HAP (25 μg/mL) or mitomycin C (5 μg/mL) in THB containing BrdU (10 μM) for 30 or 60 min. (d) BrdU incorporation into nascent DNA of S. epidermidis ATCC12228 after incubation with 6-HAP (25 μg/mL) or mitomycin C (5 μg/mL) in THB containing BrdU (10 μM) for 60 min. The data represent mean±SE of five individual experiments (*P<0.05 and **P<0.01 by Student's t-test vs vehicle control). […] Extension reaction was analyzed on a 20% acrylamide gel by electrophoresis (f). […] GAS survival was measured by counting CFU. […]
We next assessed the effect of 6-HAP on DNA synthesis. […] To directly examine the action of 6-HAP on DNA extension in a cell free system, 25-bp templates and matching 18-bp fluorescence primers were designed to measure DNA extension in vitro by Klenow (exo) DNA polymerase (FIG. 4e).

Data set [1] deals with Pam212 squamous cell carcinoma. Kind of data set: Cell proliferation assay (BrdU incorporation). In kind it is cell-based, mouse. To be noted: Pam212, 4-hr incubation. The method, then:
(a-b) Selective antiproliferative activity of 6-HAP against Pam212 squamous cell carcinoma, but not against normal keratinocytes. BrdU incorporation into Pam212 cells (b) or NHEKs (b) after 4-hr or 24-hr incubation, respectively, in suitable media containing indicated concentrations of 6-HAP or mitomycin C (10 μg/mL) (a). (c) Expression of mARC1 and mARC2 in NHEKs, squamous cell carcinoma (Pam212), melanoma (B16F10) and lymphoma cell lines (L5178). To compare relative expression level in each cells, data was shown as relative to GAPDH expression. (d) Expression of mARC1 and mARC2 in NHEKs treated with control siRNA, mARCI siRNA and mARC2 siRNA. (e) Effect of gene silencing with mARC1 and mARC2 siRNA on sensitivity to 6-HAP in NHEKs. NHEKs treated with each siRNA were incubated for 48 hrs and then incubated with 10 μg/mL of 6-HAP for 24 hrs.
Cell culture and cell proliferation assay. B16F10 mouse melanoma, Pam212, L5178 and YAC-1 mouse […] cell lines were obtained from American Type Culture Collection. […] After 4-hr (tumor cell lines) or 24-hr (NHEK) incubation with 6-HAP, proliferative activity of cells was colorimetrically determined by monitoring BrdU incorporation with Cell Proliferation kit according to the manual (Roche).
A general note: Dividing cells build labelled thymidine or BrdU into new DNA.

The nature of data set [2]: Systemic toxicity in mice. In kind it is in vivo. To be noted: intravenous 20 mg/kg every 48 hrs for 2 weeks. The method, then:
C57BL6 mice (8 week female) were intravascularly administrated with 6-HAP (20 mg/kg) or with an equal volume of vehicle (2.5% DMSO in 0.9% NaCl) every 48 hours for 2 weeks (Arrows). To observe toxicity of 6-HAP, mouse weight was determined at indicated time points. Data represent mean±SE of 10 mice.
Effect of systemic administration with 6-HAP on skin infection and melanoma growth in mice. […] Thus, given the apparent lack of toxicity, the effect on deep tissue infection was tested by intravenously injecting the non-toxic dose of 6-HAP (20 mg/kg) into a mouse model of GAS deep skin infection.

One molecule from patent US12427151B2, “Compositions and method of treating cancer” (The Regents of the University of California, priority 2017, dated 2025) can be followed below.

Broadly, the MBC is the smallest concentration meeting the test's criterion for killing.

In brackets after ≈: the same amount, converted by molar mass.

Regarding `ONc1ncnc2nc[nH]c12` [6-HAP, 6-N-hydroxyaminopurine], the MBC with GAS NZ131 was 0.156 µg/mL (≈ 1.03 µM); in the data set with MRSA Sanger252, 0.781 µg/mL (≈ 5.17 µM); against MRSA USA300, 6.25 µg/mL (≈ 41.4 µM); with P. acnes ATCC6919 it was above 100 µg/mL. The “antimicrobial activity against GAS on addition of excessive adenine” value with GAS is “partially decreased”. Further, the BrdU incorporation entry in data set [1] was “inhibited”. Moreover, in data set [2], the “toxic effects assessed by visual appearance, behavior or change in weight” value is given as “no apparent toxic effects”.
